Where two headings read alike, the source gives them in different places.
Assays:
PI3K delta = PI3K delta (Homo sapiens (Human), UniProt O00329); test: Enzymatic PI3K delta isoform inhibition (lipid kinase, Kinase-Glo luminescence); assay type: biochemical
PI3K alpha = PI3K alpha (Homo sapiens (Human), UniProt P42336); test: Enzymatic PI3K alpha isoform inhibition (lipid kinase, Kinase-Glo luminescence); assay type: biochemical; settings: enzymatic assay
PI3K alpha, sequence (P42336 other isoform, or with tags, fused parts or gaps): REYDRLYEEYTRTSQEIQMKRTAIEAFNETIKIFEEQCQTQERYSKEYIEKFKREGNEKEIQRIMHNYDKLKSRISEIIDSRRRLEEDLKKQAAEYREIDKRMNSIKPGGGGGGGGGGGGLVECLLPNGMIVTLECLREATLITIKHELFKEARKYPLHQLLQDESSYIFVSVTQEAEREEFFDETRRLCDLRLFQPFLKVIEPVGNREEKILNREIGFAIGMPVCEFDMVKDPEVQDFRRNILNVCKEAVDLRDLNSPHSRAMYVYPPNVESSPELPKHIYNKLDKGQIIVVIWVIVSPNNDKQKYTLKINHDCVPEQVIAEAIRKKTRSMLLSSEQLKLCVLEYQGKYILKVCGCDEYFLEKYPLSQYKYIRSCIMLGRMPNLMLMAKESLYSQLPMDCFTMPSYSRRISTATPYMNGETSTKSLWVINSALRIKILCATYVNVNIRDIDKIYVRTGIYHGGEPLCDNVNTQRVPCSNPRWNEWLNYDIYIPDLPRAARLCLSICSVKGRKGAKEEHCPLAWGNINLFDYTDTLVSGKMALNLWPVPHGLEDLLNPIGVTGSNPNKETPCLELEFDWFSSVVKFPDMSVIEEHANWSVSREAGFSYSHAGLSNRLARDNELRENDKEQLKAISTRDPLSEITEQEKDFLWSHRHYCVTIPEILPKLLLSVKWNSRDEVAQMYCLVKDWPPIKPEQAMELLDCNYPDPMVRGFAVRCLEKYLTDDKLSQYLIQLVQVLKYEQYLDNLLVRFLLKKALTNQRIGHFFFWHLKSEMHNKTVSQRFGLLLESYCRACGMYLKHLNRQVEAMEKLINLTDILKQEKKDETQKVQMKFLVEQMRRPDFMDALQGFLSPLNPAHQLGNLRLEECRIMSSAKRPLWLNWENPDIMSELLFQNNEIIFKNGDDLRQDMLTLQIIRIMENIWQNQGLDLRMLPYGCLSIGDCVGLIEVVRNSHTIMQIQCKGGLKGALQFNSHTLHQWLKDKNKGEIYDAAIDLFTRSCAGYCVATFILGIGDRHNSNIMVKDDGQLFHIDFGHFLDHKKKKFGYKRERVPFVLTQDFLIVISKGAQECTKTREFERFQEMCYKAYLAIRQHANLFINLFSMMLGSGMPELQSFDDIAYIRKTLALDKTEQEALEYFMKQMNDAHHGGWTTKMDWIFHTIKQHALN

PI3K delta, sequence (O00329 other isoform, or with tags, fused parts or gaps linker GGGGGG): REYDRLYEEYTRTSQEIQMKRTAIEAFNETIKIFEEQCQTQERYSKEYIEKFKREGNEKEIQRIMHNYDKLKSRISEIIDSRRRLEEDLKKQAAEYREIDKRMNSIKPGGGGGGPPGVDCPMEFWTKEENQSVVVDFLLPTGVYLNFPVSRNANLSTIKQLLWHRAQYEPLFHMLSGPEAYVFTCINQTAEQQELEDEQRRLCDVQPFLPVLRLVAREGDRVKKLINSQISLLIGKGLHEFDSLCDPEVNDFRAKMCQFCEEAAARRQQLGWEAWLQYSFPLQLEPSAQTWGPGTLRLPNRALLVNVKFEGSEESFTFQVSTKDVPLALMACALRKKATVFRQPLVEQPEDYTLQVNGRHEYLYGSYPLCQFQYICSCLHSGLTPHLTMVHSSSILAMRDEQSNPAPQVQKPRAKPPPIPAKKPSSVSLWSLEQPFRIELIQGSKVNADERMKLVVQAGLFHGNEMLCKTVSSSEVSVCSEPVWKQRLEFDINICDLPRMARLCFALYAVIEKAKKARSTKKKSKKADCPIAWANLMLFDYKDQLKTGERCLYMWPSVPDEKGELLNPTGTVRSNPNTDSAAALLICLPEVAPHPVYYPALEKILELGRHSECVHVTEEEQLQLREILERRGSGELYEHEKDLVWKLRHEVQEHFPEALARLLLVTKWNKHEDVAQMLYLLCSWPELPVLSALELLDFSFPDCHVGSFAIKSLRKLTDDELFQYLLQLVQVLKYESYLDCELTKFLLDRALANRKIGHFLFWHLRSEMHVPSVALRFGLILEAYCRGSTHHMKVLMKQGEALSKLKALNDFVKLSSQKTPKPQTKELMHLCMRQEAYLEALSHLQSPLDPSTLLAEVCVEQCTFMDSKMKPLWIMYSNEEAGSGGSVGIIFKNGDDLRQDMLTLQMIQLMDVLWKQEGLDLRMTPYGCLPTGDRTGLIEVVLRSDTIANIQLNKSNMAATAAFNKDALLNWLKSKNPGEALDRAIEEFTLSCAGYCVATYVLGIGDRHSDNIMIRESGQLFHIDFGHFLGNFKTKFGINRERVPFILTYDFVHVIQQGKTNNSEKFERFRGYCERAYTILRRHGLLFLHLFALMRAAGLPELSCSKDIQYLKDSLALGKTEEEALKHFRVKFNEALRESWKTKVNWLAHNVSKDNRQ

`COc1ncc(N2CCc3ncnc(O[C@H]4CCN(C(=O)C5CCOCC5)C4)c3C2)cn1` [Example 59, {(S)-3-[6-(2-Methoxy-pyrimidin-5-yl)-5,6,7,8-tetrahydro-pyrido[4,3-d]pyrimidin-4-yloxy]-pyrrolidin-1-yl}-(tetrahydro-pyran-4-yl)-methanone] was tested. Which IC50 (PI3K delta; enzymatic assay) did it give?
The IC50 was 28 nM.

What about the IC50 (PI3K alpha) of the same molecule?
Its IC50 is 9100 nM.

With `O=C(C1CCOCC1)N1CC[C@H](Oc2ncnc3c2CN(c2cnc4ccccc4c2)CC3)C1` [Example 60, [(S)-3-(6-Quinolin-3-yl-5,6,7,8-tetrahydro-pyrido[4,3-d]pyrimidin-4-yloxy)-pyrrolidin-1-yl]-(tetrahydro-pyran-4-yl)-methanone] as the molecule, how does the IC50 (PI3K delta; enzymatic assay) read?
The IC50 was 45 nM.

What about the IC50 (PI3K alpha) of the same molecule?
The IC50 was 3330 nM.

Which IC50 (PI3K delta; enzymatic assay) does the source give for `COc1ncc(N2CCc3ncnc(O[C@H]4CCN(C(=O)C5CCOCC5)C4)c3C2)cc1C(F)(F)F` [Example 61, {(S)-3-[6-(6-Methoxy-5-trifluoromethyl-pyridin-3-yl)-5,6,7,8-tetrahydro-pyrido[4,3-d]pyrimidin-4-yloxy]-pyrrolidin-1-yl}-(tetrahydro-pyran-4-yl)-methanone] here?
Its IC50 is 12 nM.

And the IC50 (PI3K alpha)?
Its IC50 is 589 nM.

For `COc1ncc(N2CCc3ncnc(O[C@H]4CCN(C(=O)CC(C)(C)C)C4)c3C2)cc1C(F)(F)F` [Example 62, 1-{(S)-3-[6-(6-Methoxy-5-trifluoromethyl-pyridin-3-yl)-5,6,7,8-tetrahydro-pyrido[4,3-d]pyrimidin-4-yloxy]-pyrrolidin-1-yl}-3,3-dimethyl-butan-1-one], which IC50 (PI3K delta; enzymatic assay) is on record?
The IC50 was 23 nM.

And the IC50 (PI3K alpha)?
The IC50 was 489 nM.

Which IC50 (PI3K delta; enzymatic assay) does the source give for `CCC(=O)N1CC[C@H](Oc2ncnc3c2CN(c2cnc(OC)c(C(F)(F)F)c2)CC3)C1` [Example 63, 1-{(S)-3-[6-(6-Methoxy-5-trifluoromethyl-pyridin-3-yl)-5,6,7,8-tetrahydro-pyrido[4,3-d]pyrimidin-4-yloxy]-pyrrolidin-1-yl}-propan-1-one] here?
The IC50 was 51 nM.

What about the IC50 (PI3K alpha) of the same molecule?
Its IC50 is 791 nM.

With `CCC(=O)N1CC[C@H](Oc2ncnc3c2CN(c2cnc(OC)c(C#N)c2)CC3)C1` [Example 64, 2-Methoxy-5-[4-((S)-1-propionyl-pyrrolidin-3-yloxy)-7,8-dihydro-5H-pyrido[4,3-d]pyrimidin-6-yl]-nicotinonitrile] as the molecule, how does the IC50 (PI3K delta; enzymatic assay) read?
The IC50 was 32 nM.

What about the IC50 (PI3K alpha) of the same molecule?
Its IC50 is 2330 nM.

For `COc1ncc(N2CCc3ncnc(O[C@H]4CCN(c5ncccn5)C4)c3C2)cc1C(F)(F)F` [Example 66, 6-(6-Methoxy-5-trifluoromethyl-pyridin-3-yl)-4-((S)-1-pyrimidin-2-yl-pyrrolidin-3-yloxy)-5,6,7,8-tetrahydro-pyrido[4,3-d]pyrimidine], which IC50 (PI3K delta) is on record?
The IC50 was 14 nM.

And the IC50 (PI3K alpha)?
Its IC50 is 1280 nM.

With `COc1ncc(N2CCc3ncnc(N[C@H]4CCN(C(=O)C5CCOCC5)C4)c3C2)cc1C#N` [Example 69, 2-Methoxy-5-{4-[(S)-1-(tetrahydro-pyran-4-carbonyl)-pyrrolidin-3-ylamino]-7,8-dihydro-5H-pyrido[4,3-d]pyrimidin-6-yl}-nicotinonitrile] as the molecule, how does the IC50 (PI3K delta; enzymatic assay) read?
The IC50 was 3 nM.

And the IC50 (PI3K alpha)?
Its IC50 is 56 nM.

Which results are given for `COc1ncc(N2CCc3ncnc(N[C@H]4CCN(C(=O)C5CCN(C(C)=O)CC5)C4)c3C2)cc1C(F)(F)F` [Example 70, 1-(4-{(S)-3-[6-(6-methoxy-5-trifluoromethyl-pyridin-3-yl)-5,6,7,8-tetrahydro-pyrido[4,3-d]pyrimidin-4-ylamino]-pyrrolidine-1-carbonyl}-piperidin-1-yl)-ethanone]?
IC50 (PI3K delta; enzymatic assay): 6 nM; IC50 (PI3K alpha): 121 nM

What does the source list for `COc1ncc(N2CCc3ncnc(N[C@H]4CCN(C(=O)c5cnco5)C4)c3C2)cc1C(F)(F)F` [Example 72, {(S)-3-[6-(6-Methoxy-5-trifluoromethyl-pyridin-3-yl)-5,6,7,8-tetrahydro-pyrido[4,3-d]pyrimidin-4-ylamino]-pyrrolidin-1-yl}-oxazol-5-yl-methanone]?
IC50 (PI3K delta; enzymatic assay): 4 nM; IC50 (PI3K alpha): 93 nM

Which results are given for `COc1ncc(N2CCc3ncnc(N[C@H]4CCN(C(=O)c5cn(C)cn5)C4)c3C2)cc1C` [Example 77, -{(S)-3-[6-(6-Methoxy-5-methyl-pyridin-3-yl)-5,6,7,8-tetrahydro-pyrido[4,3-d]pyrimidin-4-ylamino]-pyrrolidin-1-yl}-(1-methyl-1H-imidazol-4-yl)-methanone]?
IC50 (PI3K delta; enzymatic assay): 44 nM; IC50 (PI3K alpha): 1290 nM

With `COc1ncc(N2CCc3ncnc(N[C@H]4CCN(C(=O)c5cnco5)C4)c3C2)cc1C` [Example 78, {(S)-3-[6-(6-Methoxy-5-methyl-pyridin-3-yl)-5,6,7,8-tetrahydro-pyrido[4,3-d]pyrimidin-4-ylamino]-pyrrolidin-1-yl}-oxazol-5-yl-methanone] as the molecule, how does the IC50 (PI3K delta; enzymatic assay) read?
Its IC50 is 12 nM.

What about the IC50 (PI3K alpha) of the same molecule?
Its IC50 is 384 nM.

For `COc1ncc(N2CCc3ncnc(N[C@H]4CCN(C(=O)c5cocn5)C4)c3C2)cc1C` [Example 79, {(S)-3-[6-(6-Methoxy-5-methyl-pyridin-3-yl)-5,6,7,8-tetrahydro-pyrido[4,3-d]pyrimidin-4-ylamino]-pyrrolidin-1-yl}-oxazol-4-yl-methanone], which IC50 (PI3K delta; enzymatic assay) is on record?
The IC50 was 17 nM.

What about the IC50 (PI3K alpha) of the same molecule?
The IC50 was 781 nM.

How did the IC50 (PI3K delta; enzymatic assay) turn out when `COc1ncc(N2CCc3ncnc(N[C@H]4CCN(C(=O)C5CCOC(C)(C)C5)C4)c3C2)cc1C` (stereo partly drawn) [Example 80, (2,2-Dimethyl-tetrahydro-pyran-4-yl)-{(S)-3-[6-(6-methoxy-5-methyl-pyridin-3-yl)-5,6,7,8-tetrahydro-pyrido[4,3-d]pyrimidin-4-ylamino]-pyrrolidin-1-yl}-methanone] was run?
Its IC50 is 16 nM.

What about the IC50 (PI3K alpha) of the same molecule?
The IC50 was 430 nM.

Which IC50 (PI3K delta; enzymatic assay) does the source give for `O=C(C1CCOCC1)N1CC[C@H](Nc2ncnc3c2CN(c2cncc(C(F)(F)F)c2)CC3)C1` [Example 84, (Tetrahydro-pyran-4-yl)-{(S)-3-{6-(5-(trifluoromethyl)pyridin-3-yl)-5,6,7,8-tetrahydropyrido[4,3-d]pyrimidin-4-ylamino)pyrrolidin-1-yl}-methanone] here?
The IC50 was 9 nM.

And the IC50 (PI3K alpha)?
Its IC50 is 58 nM.

How did the IC50 (PI3K delta; enzymatic assay) turn out when `COc1ncc(N2CCc3ncnc(O[C@H]4CCN(C(=O)N5CCOCC5)C4)c3C2)cc1C(F)(F)F` [Example 86, -{(S)-3-[6-(6-Methoxy-5-trifluoromethyl-pyridin-3-yl)-5,6,7,8-tetrahydro-pyrido[4,3-d]pyrimidin-4-yloxy]-pyrrolidin-1-yl}-morpholin-4-yl-methanone] was run?
Its IC50 is 20 nM.

And the IC50 (PI3K alpha)?
The IC50 was 1330 nM.

Which IC50 (PI3K delta; enzymatic assay) does the source give for `COc1ncc(N2CCc3ncnc(O[C@H]4CCN(C(=O)N5CCC(O)CC5)C4)c3C2)cc1C(F)(F)F` [Example 87, (4-Hydroxy-piperidin-1-yl)-{(S)-3-[6-(6-methoxy-5-trifluoromethyl-pyridin-3-yl)-5,6,7,8-tetrahydro-pyrido[4,3-d]pyrimidin-4-yloxy]-pyrrolidin-1-yl}-methanone] here?
Its IC50 is 12 nM.

What about the IC50 (PI3K alpha) of the same molecule?
The IC50 was 452 nM.

Which IC50 (PI3K delta; enzymatic assay) does the source give for `COc1ncc(N2CCc3ncnc(O[C@H]4CCN(C(=O)N(C)CCO)C4)c3C2)cc1C(F)(F)F` [Example 88, (S)-3-[6-(6-Methoxy-5-trifluoromethyl-pyridin-3-yl)-5,6,7,8-tetrahydro-pyrido[4,3-d]pyrimidin-4-yloxy]-pyrrolidine-1-carboxylic acid (2-hydroxy-ethyl)-methyl-amide] here?
The IC50 was 34 nM.

What about the IC50 (PI3K alpha) of the same molecule?
Its IC50 is 1340 nM.

`COc1ncc(N2CCc3ncnc(O[C@H]4CCN(C(=O)N5CCN(C(C)=O)CC5)C4)c3C2)cc1C(F)(F)F` [Example 89, 1-(4-{(S)-3-[6-(6-methoxy-5-trifluoromethyl-pyridin-3-yl)-5,6,7,8-tetrahydro-pyrido[4,3-d]pyrimidin-4-yloxy]-pyrrolidine-1-carbonyl}-piperazin-1-yl)-ethanone] was tested. Which IC50 (PI3K delta; enzymatic assay) did it give?
The IC50 was 29 nM.

What about the IC50 (PI3K alpha) of the same molecule?
Its IC50 is 1190 nM.

`COc1ncc(N2CCc3ncnc(O[C@H]4CCN(C(=O)c5cocn5)C4)c3C2)cc1C(F)(F)F` [Example 91, {(S)-3-[6-(6-methoxy-5-trifluoromethyl-pyridin-3-yl)-5,6,7,8-tetrahydro-pyrido[4,3-d]pyrimidin-4-yloxy]-pyrrolidin-1-yl}-oxazol-4-yl-methanone] was tested. Which IC50 (PI3K delta; enzymatic assay) did it give?
The IC50 was 11 nM.

And the IC50 (PI3K alpha)?
Its IC50 is 924 nM.

`COc1ncc(N2CCc3ncnc(O[C@H]4CCN(C(=O)C5CCN(C(C)=O)CC5)C4)c3C2)cc1C(F)(F)F` [Example 92, 1-(4-{(S)-3-[6-(6-Methoxy-5-trifluoromethyl-pyridin-3-yl)-5,6,7,8-tetrahydro-pyrido[4,3-d]pyrimidin-4-yloxy]-pyrrolidine-1-carbonyl}-piperidin-1-yl)-ethanone] was tested. Which IC50 (PI3K delta; enzymatic assay) did it give?
Its IC50 is 9 nM.

And the IC50 (PI3K alpha)?
The IC50 was 2540 nM.

With `COc1ncc(N2CCc3ncnc(O[C@H]4CCN(C(=O)c5cncn5C)C4)c3C2)cc1C(F)(F)F` [Example 93, {(S)-3-[6-(6-Methoxy-5-trifluoromethyl-pyridin-3-yl)-5,6,7,8-tetrahydro-pyrido[4,3-d]pyrimidin-4-yloxy]-pyrrolidin-1-yl}-(3-methyl-3H-imidazol-4-yl)-methanone] as the molecule, how does the IC50 (PI3K delta; enzymatic assay) read?
The IC50 was 24 nM.

What about the IC50 (PI3K alpha) of the same molecule?
The IC50 was 872 nM.

For `COc1ccc(N2CCc3ncnc(O[C@H]4CCN(C(=O)C5CCOCC5)C4)c3C2)cn1` [Example 95, {(S)-3-[6-(6-Methoxy-pyridin-3-yl)-5,6,7,8-tetrahydro-pyrido[4,3-d]pyrimidin-4-yloxy)pyrrolidin-1-yl}-(tetrahydro-pyran-4-yl)-methanone], which IC50 (PI3K delta; enzymatic assay) is on record?
The IC50 was 53 nM.

And the IC50 (PI3K alpha)?
Its IC50 is 757 nM.

Source: US8653092B2, “Tetrahydro-pyrido-pyrimidine derivatives” (Novartis AG, priority 2010, dated 2014)
